Assays:
Nucleic Acid [1] = experiment: Dissociation constant towards 16S rRNA construct B; type: nucleic-acid assay
Nucleic Acid [2] = experiment: Dissociation constant towards 16S rRNA construct A; type: nucleic-acid assay

| SMILES | Kd (Nucleic Acid [1]) | Kd (Nucleic Acid [2]) |
| --- | --- | --- |
| NC[C@H]1O[C@H](O[C@H]2[C@H](O)[C@@H](O[C@H]3O[C@H](CSCCOCCSSCCOCCSC[C@H]4O[C@H](O[C@@H]5[C@@H](O)[C@H](O[C@H]6O[C@H](CN)[C@@H](O)C[C@H]6N)[C@@H](N)C[C@H]5N)[C@H](O)[C@@H](N)[C@@H]4O)[C@@H](O)[C@H](N)[C@H]3O)[C@H](N)C[C@@H]2N)[C@H](N)C[C@@H]1O [Tobramycin-Tobramycin] | 1810 nM | 1780 nM |
| NC[C@H]1O[C@H](O[C@H]2[C@H](O)[C@@H](O[C@H]3O[C@H](CO)[C@@H](O)[C@H](N)[C@H]3O)[C@H](N)C[C@@H]2N)[C@H](N)C[C@@H]1O [TOBRAMYCIN] | 1680 nM | 2110 nM |
| NC[C@@H]1O[C@H](O[C@H]2[C@@H](O)[C@H](O[C@@H]3[C@@H](O)[C@H](N)C[C@H](N)[C@H]3O[C@H]3O[C@H](CN)[C@@H](O)[C@H](O)[C@H]3N)O[C@@H]2CO)[C@H](N)[C@@H](O)[C@@H]1O [FRAMYCETIN] | 380 nM | 440 nM |

The next compounds have a lower Kd (Nucleic Acid [1]) than those just listed; values first:

| Kd (Nucleic Acid [1]) | Kd (Nucleic Acid [2]) | SMILES |
| --- | --- | --- |
| 20 nM | 320 nM | NCC1O[C@H](O[C@H]2[C@@H](O)[C@H](O[C@H]3[C@H](O)[C@@H](N)C[C@@H](N)[C@@H]3O[C@H]3O[C@H](CN)[C@@H](O)[C@H](O)[C@H]3N)O[C@@H]2CSCCOCCSSCCOCCSC[C@H]2O[C@@H](O[C@H]3[C@H](O)[C@@H](N)C[C@@H](N)[C@@H]3O[C@H]3O[C@H](CN)[C@@H](O)[C@H](O)[C@H]3N)[C@H](O)[C@@H]2O[C@@H]2OC(CN)[C@H](O)[C@@H](O)[C@@H]2N)[C@H](N)[C@@H](O)[C@@H]1O (stereo not given in full) |
| 290 nM | 410 nM | NCC1O[C@H](O[C@H]2[C@@H](O)[C@H](O[C@H]3[C@H](O)[C@@H](N)C[C@@H](N)[C@@H]3O[C@H]3O[C@H](CN)[C@@H](O)[C@H](O)[C@H]3N)O[C@@H]2CSCCOCCSSCCOCCSC[C@H]2O[C@H](O[C@@H]3[C@@H](O)[C@H](O[C@H]4O[C@H](CN)[C@@H](O)C[C@H]4N)[C@@H](N)C[C@H]3N)[C@H](O)[C@@H](N)[C@@H]2O)[C@H](N)[C@@H](O)[C@@H]1O (stereo not given in full) |

— ChEMBL document CHEMBL1133237, “Enhanced binding of aminoglycoside dimers to a "dimerized" A-site 16S rRNA construct” (Bioorg Med Chem Lett, 2000)
